Data set [1] in a line: Bacterial sludge contact test. As for the experimental part: (§1) The environmental stability of C6 F13 CF(CF3)COO^- NH4^+ was investigated under ambient conditions using a bacterial sludge contact test. In this test, bacterial sludge was obtained from the municipal waste treatment plant at Pig's Eye, Minn., the sludge was centrifuged to collect the water-insoluble high density solids, and was reconstituted in water to a standard level of about 2000 ppm of total suspended solids. A 5 mL aliquot of the 2000 ppm sludge in water was placed in each of several 20 mL vials, and enough of the carboxylate salt was added to each vial to achieve a concentration of about 496 ppm (1 millimolar). Each vial was tightly capped with a septum cap and was allowed to stand at room temperature. At intervals, the concentrations of perfluoroolefin and perfluoromonohydride gases in each headspace were measured by removing a gas sample from the space over the liquid, using a Hewlitt Packard Gas Chromatograph with a headspace sampling accessory. The peak areas determined from each gas sample were compared to a standard series made by placing increasing concentrations of a defined mixture of perfluoroolefin and perfluoromonohydride in water in the same types of vials, and subjecting the headspaces in the vials to the same analytical procedure. Results, given below, state the complete conversion relative to theoretical percent of the amount of perfluoroolefin/perfluoromonohydride mixture formed relative to that expected from complete conversion of the salt to volatile fluorocarbons. A control experiment using water with no sludge was also run at the 28 day test point.

The subject of another data set is bacterial sludge. The experiment in a line: Bacterial sludge contact test. The note with it: 28 days, ambient conditions. As for the experimental part: as §1
Data set [2] is described as follows: Thermogravimetric analysis of neat perfluorocarboxylate salts. Type of data set: physicochemical. The note with it: neat salt, nitrogen, 10° C./min. The text has this: Thermal degradation measurements were made on a series of neat perfluorocarboxylate salts, including several α-branched open chain structures (Examples N2-N9), a primarily linear open chain structure (Example N10-Fluorad™ FC-143 Fluorochemical Surfactant, commercially available from 3M Company, St. Paul, Minn.), and a closed chain (i.e., cyclic) structure (Example N11--made by the electrochemical fluorination of benzoic acid and hydrolysis in the presence of KOH, as described in U.S. Pat. No. 2,567,011 (Diesslin et al.)).
The perfluorocarboxylate salts were tested using a Perkin-Elmer TGA 7 thermogravimetric analysis apparatus and a salt sample size of approximately 5 mg, a heating rate of 10° C./min, and a nitrogen gas flow rate of 40-45 mL/min. Using the TGA 7 software, the following temperatures were recorded: (1) the onset temperature of decomposition, (2) the temperature at which 50% of the sample weight was lost, and (3) the temperature at which 90% of the sample weight was lost.

`O=C(O)C(F)(C(F)(F)F)C(F)(F)C(F)(F)C(F)(F)C(F)(F)C(F)(F)C(F)(F)F` (stereo not shown) [Example M16, C6 F13 CF(CF3)COO^- H4 N^+] displayed a percent perfluoroolefin/perfluoromonohydride formed at 672 h, 1000 µM in data set [1] (Day 28, no sludge) of 32%. For the same compound, in data set [1] (bacterial sludge, Day 1, with sludge), the percent perfluoroolefin/perfluoromonohydride formed at 24 h, 1000 µM was 4%. The percent perfluoroolefin/perfluoromonohydride formed at 96 h, 1000 µM in data set [1] (bacterial sludge, Day 4, with sludge) amounted to 13%. The percent perfluoroolefin/perfluoromonohydride formed at 168 h, 1000 µM in data set [1] (bacterial sludge, Day 7, with sludge) worked out at 23%. Also, the percent perfluoroolefin/perfluoromonohydride formed at 336 h, 1000 µM in data set [1] (bacterial sludge, Day 14, with sludge) amounted to 44%. Also, the percent perfluoroolefin/perfluoromonohydride formed at 672 h, 1000 µM in data set [1] (bacterial sludge, Day 28, with sludge) was found to be 70%. The “effect of sludge on amount of perfluoroolefin/perfluoromonohydride” value with bacterial sludge is given as “more than doubled”. In addition, in data set [2], the “Temperature for: 50% loss” value is 179 °C, the “Temperature for: 90% loss” value was 193 °C and the “Temperature for: Onset” value amounted to 165 °C.

The values above are taken from patent publication US5998521A, “Aqueous fluoropolymer compositions and method of preparing the same” (3M Innovative Properties Company, priority 1996, dated 1999).
